Publication PMC2346451 (PLoS ONE, 2008)

What was measured:
[1] = test system: dorsal root ganglion neurons; assay: Whole-cell patch clamp of acutely isolated dorsal root ganglion neurons; format: cell-based, rat
Source text: Dorsal root ganglion neurons from all spinal levels were removed from postnatal day 12 to 20 Sprague Dawley rats and the nerve roots trimmed. Calcium- and magnesium-free (CMF) Hank's solution contained (in mM): 136.9 sodium chloride, 5.4 potassium chloride, 0.34 dibasic sodium orthophosphate, 0.44 monopotassium phosphate, 5.6 glucose, 5 4-(2-hydroxyethyl)-1-piperazineethanesulfonic acid, 0.005% phenol red, pH 7.4. CMF Hank's was used throughout the isolation and enzymatic treatments. The isolated ganglia were treated for 20 minutes at 37°C with 20 U/ml of papain (Worthington Biochemical, Lakewood, NJ) and 5 mM cysteine. The ganglia were then transferred to CMF Hank's with 3 mg/ml collagenase (type I; Worthington) and 4 mg/ml dispase (neutral type II; Roche Applied Science, Indianapolis, IN) for 20 minutes at 37°C. Individual neurons were dispersed by trituration through a fire-polished glass Pasteur pipette in 3 ml of media containing DMEM, 5% horse serum, 10% fetal bovine serum, 1% penicillin/streptomycin, and 100 ng/ml Nerve Growth Factor (7S subunit; Invitrogen). The neurons were preplated in tissue culture-treated Petri dishes for 1 hour when used for electrophysiology (3 hours for calcium imaging), and then plated on poly-L-lysine (1 mg/ml)-coated glass coverslips. Dorsal root ganglion neurons were allowed to settle for 1–2 hours at 37°C before patching or imaging over the next 6 hours.
(§1) Electrophysiological experiments were performed using the whole-cell patch-clamp technique at room temperature. Modified Ringer's solution with low chloride and nominal calcium contained (in mM): 130 sodium hydroxide, 5 potassium chloride, 1 magnesium chloride, 10 sodium 4-(2-hydroxyethyl)-1-piperazineethanesulfonic acid, 10 2-(N-morpholino)ethanesulfonic acid, and 20 glucose (pH 7.4; 310 milli-osmolar). […] 2 mM calcium chloride was included in the external solution where noted. To activate TRPV1, the modified Ringer's solution was made at pH 5 (low pH solution) and the chloride concentration was kept to a minimum to prevent contamination of the TRPV1 currents with acid-activated chloride currents. For recordings from heterologously expressing cells, the internal pipette solution contained (in mM): 125 cesium-Methanesulfonate, 10 cesium (1.2-bis(o-aminophenoxy)ethane-N,N,N',N'-tetraacetic acid, 8 sodium chloride, 4 magnesium adenosine triphosphate, and 10 HEPES (pH 7.2; 290 mOSM; nominal free calcium concentrations). For TRPA1 and dorsal root ganglion recordings, the internal pipette solution contained (in mM): 110 cesium-Methanesulfonate, 0.5 cesium4BAPTA, 8 sodium chloride, 0.2 calcium chloride, 4 magnesium-ATP, 4 sodium-GTP, and 10 4-(2-hydroxyethyl)-1-piperazineethanesulfonic acid (pH 7.2; 290 mOSM; 100 nM free calcium internal). MaxChelator was used to calculate the free calcium concentration (http://www.stanford.edu/cpatton/maxc.html).
(§2) Recordings were obtained using an Axopatch 200B amplifier, Digidata 1322A analog-to-digital converter, and pClamp 8.01 software (Molecular Devices, Union City, CA). Data were low-pass filtered at 2 kHz and digitized at 5 kHz. Borosilicate glass pipettes (World Precision Instruments, Sarasota, FL) were typically 3 MΩ pipette resistance after fire polishing. Cell capacitance was measured for each cell, and access resistance compensated to ∼80%. Recordings were begun ∼5 minutes after initial rupture to ensure initial steady state conditions. Current-voltage (I-V) relations were obtained using a ramp protocol. Voltage ramps (400 ms) from −100 to +40 or +100 mV were applied every 1–2 seconds and the holding potential was either −70 mV or 0 mV (see Figure Legends). A 40 ms step was added at the beginning and end of the ramp (i.e. at −100 mV, +40 mV or +100 mV). Liquid junction potentials were not corrected.

[2] = target: rat TRPM8 (rTRPM8) (Rattus norvegicus, UniProt Q8R455); assay: Whole-cell patch clamp of rat TRPM8 expressed in HEK-293T cells; format: cell-based
Sequence of rat TRPM8 (rTRPM8) (Q8R455 whole entry): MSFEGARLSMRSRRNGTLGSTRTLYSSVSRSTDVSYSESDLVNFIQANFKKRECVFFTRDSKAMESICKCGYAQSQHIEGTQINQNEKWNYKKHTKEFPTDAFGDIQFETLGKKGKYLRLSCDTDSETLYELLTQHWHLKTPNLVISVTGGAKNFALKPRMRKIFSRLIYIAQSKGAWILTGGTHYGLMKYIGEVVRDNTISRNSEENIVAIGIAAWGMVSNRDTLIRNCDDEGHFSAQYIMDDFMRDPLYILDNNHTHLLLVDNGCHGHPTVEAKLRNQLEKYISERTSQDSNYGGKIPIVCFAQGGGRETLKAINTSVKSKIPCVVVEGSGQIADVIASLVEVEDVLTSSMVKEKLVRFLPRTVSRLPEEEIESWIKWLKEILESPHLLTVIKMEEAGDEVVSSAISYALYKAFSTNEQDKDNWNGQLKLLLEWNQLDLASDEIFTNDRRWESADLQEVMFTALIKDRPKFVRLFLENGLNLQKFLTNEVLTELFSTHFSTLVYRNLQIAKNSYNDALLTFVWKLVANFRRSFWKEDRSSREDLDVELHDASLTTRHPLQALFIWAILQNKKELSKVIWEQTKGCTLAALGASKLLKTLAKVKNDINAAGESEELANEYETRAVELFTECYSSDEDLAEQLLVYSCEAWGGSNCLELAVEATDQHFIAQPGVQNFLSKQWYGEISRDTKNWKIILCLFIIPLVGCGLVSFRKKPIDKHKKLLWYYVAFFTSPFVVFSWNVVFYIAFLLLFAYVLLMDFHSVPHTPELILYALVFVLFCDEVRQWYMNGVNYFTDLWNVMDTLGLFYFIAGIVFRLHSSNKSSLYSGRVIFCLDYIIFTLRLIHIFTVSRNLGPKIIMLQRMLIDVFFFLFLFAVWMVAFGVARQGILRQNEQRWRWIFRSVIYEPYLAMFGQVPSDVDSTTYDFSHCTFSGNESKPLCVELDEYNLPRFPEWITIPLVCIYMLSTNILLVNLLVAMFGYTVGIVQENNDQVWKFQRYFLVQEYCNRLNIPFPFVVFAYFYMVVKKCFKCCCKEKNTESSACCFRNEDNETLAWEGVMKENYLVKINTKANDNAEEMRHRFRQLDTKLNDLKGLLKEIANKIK
Description: (§3) Transformed human embryonic kidney-293 (HEK-293T) cells were grown in Dulbecco's modified Eagle's medium (DMEM)+F-12 supplemented with 10% fetal calf serum, and 1% penicillin/streptomycin in 5% CO2 at 37°C. Cells grown to 90% confluence in 35 mm Petri dishes were transiently transfected with plasmid DNA encoding a TRP channel construct (1 µg). Rat TRPV1 (rTRPV1) was cloned into an enhanced green fluorescent protein-containing vector (pTracer-CMV2; Invitrogen, Carlsbad, CA). Chicken TRPV1 (cTRPV1), the chicken rat TRPV1 chimera (crcTRPV1), rat TRPV2 (rTRPV2), mouse TRPV3 (mTRPV3), mouse TRPV4 (mTRPV4), rat TRPM8 (rTRPM8), and rat TRPA1 (rTRPA1), were cloned into pcDNA3 and co-transfected with enhanced green fluorescent protein (0.1 µg) to follow expression. The cTRPV1 and crcTRPV1 clones were kindly provided by Dr. David Julius. Recordings were carried out 24–36 hours after transfection. Cells were split via trypsin EDTA, plated on glass coverslips at 5–10% confluence, and used 2–3 hours later.
as §1, §2
(§4) The dose response curves were fit with the Hill equation, where [drawing 8] and [A] is the concentration of agonist or blocker, N is the Hill coefficient, and KD is the [A] for Imeasured/Imax = 0.5. The term apparent dissociation constant is used in place of the half concentration of excitation and inhibition. […] Averaged data are presented as mean±standard error (S.E.) throughout. Statistical analysis included paired and unpaired Student's t-test comparisons of the data; p values are reported in the text.

[3] = target: rat TRPV1 (rTRPV1) (Rattus norvegicus, UniProt O35433); assay: Whole-cell patch clamp of rat TRPV1 expressed in HEK-293T cells; format: cell-based; details: for Activation of TRPV1 current: analyzed at −40 mV and +40 mV; for Decrease of pH 5-evoked TRPV1 current: 300 µM, −40 mV
Sequence of rat TRPV1 (rTRPV1) (O35433 whole entry): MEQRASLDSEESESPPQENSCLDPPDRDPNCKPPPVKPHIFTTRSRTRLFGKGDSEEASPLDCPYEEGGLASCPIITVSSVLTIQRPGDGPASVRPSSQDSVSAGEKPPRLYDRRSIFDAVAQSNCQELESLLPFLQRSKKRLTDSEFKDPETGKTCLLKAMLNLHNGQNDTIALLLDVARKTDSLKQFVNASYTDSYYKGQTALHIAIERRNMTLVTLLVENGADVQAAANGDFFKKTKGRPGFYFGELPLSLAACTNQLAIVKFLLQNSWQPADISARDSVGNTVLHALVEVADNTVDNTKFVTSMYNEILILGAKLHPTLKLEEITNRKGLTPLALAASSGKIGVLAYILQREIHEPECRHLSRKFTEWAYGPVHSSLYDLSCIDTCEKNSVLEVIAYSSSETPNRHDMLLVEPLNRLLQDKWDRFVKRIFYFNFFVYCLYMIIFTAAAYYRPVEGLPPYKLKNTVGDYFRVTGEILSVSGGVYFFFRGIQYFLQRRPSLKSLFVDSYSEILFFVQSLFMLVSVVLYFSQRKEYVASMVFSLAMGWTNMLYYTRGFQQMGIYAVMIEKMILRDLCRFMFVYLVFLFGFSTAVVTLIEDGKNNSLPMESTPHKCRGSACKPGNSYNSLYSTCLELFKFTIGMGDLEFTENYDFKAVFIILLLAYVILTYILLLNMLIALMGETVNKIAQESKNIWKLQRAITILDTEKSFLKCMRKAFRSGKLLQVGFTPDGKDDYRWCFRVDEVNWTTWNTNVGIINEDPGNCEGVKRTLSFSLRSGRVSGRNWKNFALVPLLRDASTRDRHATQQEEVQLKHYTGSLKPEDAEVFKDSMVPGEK
Description: as §3, §1, §2, §4

[4] = target: rat TRPA1 (rTRPA1) (Rattus norvegicus, UniProt Q6RI86); assay: Whole-cell patch clamp of rat TRPA1 expressed in HEK-293T cells; format: cell-based
Sequence of rat TRPA1 (rTRPA1) (Q6RI86 whole entry): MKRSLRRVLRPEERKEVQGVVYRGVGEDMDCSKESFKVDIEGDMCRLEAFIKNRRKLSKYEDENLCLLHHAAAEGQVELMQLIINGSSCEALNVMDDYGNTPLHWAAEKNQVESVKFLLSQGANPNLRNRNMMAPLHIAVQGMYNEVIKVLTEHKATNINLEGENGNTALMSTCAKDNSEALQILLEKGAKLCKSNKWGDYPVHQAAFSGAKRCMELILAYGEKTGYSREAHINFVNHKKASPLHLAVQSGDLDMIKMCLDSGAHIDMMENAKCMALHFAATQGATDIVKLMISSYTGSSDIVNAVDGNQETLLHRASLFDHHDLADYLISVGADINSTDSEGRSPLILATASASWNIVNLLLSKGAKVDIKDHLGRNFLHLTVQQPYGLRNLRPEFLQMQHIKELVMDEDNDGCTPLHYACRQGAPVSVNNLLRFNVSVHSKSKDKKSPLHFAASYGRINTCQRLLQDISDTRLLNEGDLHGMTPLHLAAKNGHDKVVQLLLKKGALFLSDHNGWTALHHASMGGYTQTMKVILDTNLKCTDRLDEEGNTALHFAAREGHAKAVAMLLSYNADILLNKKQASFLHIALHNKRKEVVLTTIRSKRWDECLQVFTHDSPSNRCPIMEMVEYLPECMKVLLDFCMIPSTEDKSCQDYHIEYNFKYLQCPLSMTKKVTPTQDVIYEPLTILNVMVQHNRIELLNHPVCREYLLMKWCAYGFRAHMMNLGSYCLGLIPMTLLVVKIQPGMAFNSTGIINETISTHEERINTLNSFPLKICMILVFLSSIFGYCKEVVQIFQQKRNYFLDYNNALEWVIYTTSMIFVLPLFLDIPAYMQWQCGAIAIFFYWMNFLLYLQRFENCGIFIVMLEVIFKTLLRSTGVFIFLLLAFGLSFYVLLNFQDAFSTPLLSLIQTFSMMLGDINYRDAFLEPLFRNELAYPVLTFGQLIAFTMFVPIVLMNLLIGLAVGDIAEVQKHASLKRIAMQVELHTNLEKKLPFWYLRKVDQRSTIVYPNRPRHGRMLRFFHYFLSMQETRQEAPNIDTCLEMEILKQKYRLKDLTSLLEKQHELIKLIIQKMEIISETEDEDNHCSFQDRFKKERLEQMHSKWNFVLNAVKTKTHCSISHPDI
Description: as §3, §1, §2, §4

[5] = target: T1, mouse TRPV3 (mTRPV3) (Mus musculus, UniProt Q8K424); assay: Whole-cell patch clamp of mouse TRPV3 expressed in HEK-293T cells; format: cell-based
T1 sequence (Q8K424 1-791): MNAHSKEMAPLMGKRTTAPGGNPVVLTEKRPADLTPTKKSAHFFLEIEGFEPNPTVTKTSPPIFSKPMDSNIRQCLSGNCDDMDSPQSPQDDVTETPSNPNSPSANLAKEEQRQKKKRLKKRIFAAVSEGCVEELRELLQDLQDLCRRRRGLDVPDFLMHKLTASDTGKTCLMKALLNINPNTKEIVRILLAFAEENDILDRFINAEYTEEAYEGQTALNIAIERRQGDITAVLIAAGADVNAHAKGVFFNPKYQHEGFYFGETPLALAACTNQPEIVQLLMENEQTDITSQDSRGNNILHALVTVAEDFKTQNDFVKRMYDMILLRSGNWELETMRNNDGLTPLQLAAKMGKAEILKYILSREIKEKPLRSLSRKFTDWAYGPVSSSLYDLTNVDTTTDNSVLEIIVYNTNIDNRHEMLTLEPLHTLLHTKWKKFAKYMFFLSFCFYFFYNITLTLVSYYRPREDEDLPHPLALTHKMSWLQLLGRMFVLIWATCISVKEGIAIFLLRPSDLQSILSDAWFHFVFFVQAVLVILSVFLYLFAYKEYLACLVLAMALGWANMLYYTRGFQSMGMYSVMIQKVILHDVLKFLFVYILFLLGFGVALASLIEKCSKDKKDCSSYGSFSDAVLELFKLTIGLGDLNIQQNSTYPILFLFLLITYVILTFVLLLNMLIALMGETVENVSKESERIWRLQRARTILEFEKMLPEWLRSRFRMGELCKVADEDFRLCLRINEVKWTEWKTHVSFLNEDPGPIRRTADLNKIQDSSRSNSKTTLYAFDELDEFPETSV
Description: as §3, §1, §2, §4

[6] = after citral inhibition of TRPV1

| Decrease of pH 5-evoked TRPV1 current [3] | SMILES | Activation of TRPM8 current [2] | Activation of TRPV1 current [3] | Activation of TRPA1 current [4] | Activation of TRPV3 current [5] | further results |
| --- | --- | --- | --- | --- | --- | --- |
| – | NCCOB(c1ccccc1)c1ccccc1 [2-aminoethyldiphenyl borate, reference compound] | – | – | – | – | Potentiation of current by repeated application, representative neuron ([1]; +100 mV): 2.3 fold; Cells with evoked currents among cells in which TRPV1 was inhibited [1, 6]: 27 of 30; Increase of current in cells in which TRPV1 was inhibited [1, 6]: 3±0.4 fold; Potentiation of current by repetitive application ([1]; second responsive population (six of twelve neurons)): 1.7±0.3 fold |
| – | CC12CCC(CC1=O)C2(C)C (stereo not drawn) [camphor, reference compound] | – | – | – | – | Increase in outward current ([1]; second 2-aminoethyldiphenyl borate responsive population): 1.3 fold |
| – | CC(C)=CCC/C(C)=C/C=O [geranial] | weakly activated | weakly activated | weakly activated | weakly activated | – |
| 45% | CC(C)=CCC/C(C)=C/CO [geraniol] | weakly activated | weakly activated | weakly activated | weakly activated | Block of inward TRPA1 current ([4]; 1 mM, −100 mV, n = 9): 70% |
| – | CC(C)=CCC/C(C)=C\C=O [neral] | weakly activated | weakly activated | weakly activated | weakly activated | – |
| 50% | CC(C)=CCC/C(C)=C\CO [nerol] | weakly activated | weakly activated | weakly activated | weakly activated | TRPV1 current recovered after washout ([3]; 1 mM, 5 minutes after washout, in 3 of 4 cells): < 1%; inhibition at 1000 µM ([3]; HEK-293T, pH 5, 1 mM, sustained after 5 minutes washout, read-out: Inhibition of pH 5-evoked TRPV1 current): 100%; Increase of TRPA1 current on second application ([4]; 1 mM, −100 mV, n = 4): 2 fold |
